Measurements reported in patent US20090253785A1, “Bactericide composition” (priority 2007, published 2009).

Assays:
Type in all cases: cell-based
[1] = test system: Staphylococcus aureus (S. aureus); test: Quantitative test of bacterial suspension, S. aureus; details: for Anti-bacteria ratio / Remaining bacteria: S. aureus, incubated 24 hours
Experimental: (§1) S. aureus, E. coli, MRSA and P. acnes were respectively prepared to form a suspension. The concentration of the suspension was about 1.5×10^8 CFU/ml (density=0.5 McFarland), and then was diluted 100 times (about 1.5×10^6 CFU/ml).
(§2) L-ascorbic acid solutions were prepared respectively in concentrations of 1 wt %, 5 wt %, 10 wt %, 15 wt %, 20 wt %, 25 wt % and 30 wt %. The different concentrations of L-ascorbic acid solutions were used as a test. A hydrochloric acid solution and distilled water were used respectively as a positive control and a negative control, and the pH value of the hydrochloric acid solution was the same of the pH value of the 25 wt % L-ascorbic acid solution.
(§3) 1 ml bacterial suspension was added to a 9 ml L-ascorbic acid solution for testing, and equal amounts of the bacterial suspension were added respectively to the positive control of 9 ml hydrochloric acid solution and the negative control of 9 ml distilled water, and then all solutions were incubated for 24 hours.
(§4) After incubating for 24 hours, all the solutions were series diluted, until diluted 1000 times to form a series of dilution solutions.
(§5) To calculate bacteria remaining in the solutions, 0.2 ml of each series of dilution solutions were cultured respectively on Petri dishes and repeated twice.
(§6) Each Petri dish was cultured in an incubator at 35±2° C. for 1˜2 days (S. aureus, E. coli) or for 2˜4 days (MRSA and P. acnes) to observe bacteria growth on Petri dish and the bacteria were counted.
(§7) Anti-bacterial ratio (%)=[(remaining bacteria of controls−remaining bacteria of test)/remaining bacteria of controls]×100%

[2] = test system: Escherichia coli (E. coli); test: Quantitative test of bacterial suspension, E. coli; details: for Anti-bacteria ratio / Remaining bacteria: E. coli, incubated 24 hours
Experimental: as §1, §2, §3, §4, §5, §6, §7

[3] = test system: Methicillin-resistant Staphylococcus aureus (MRSA); test: Quantitative test of bacterial suspension, MRSA; details: for Anti-bacteria ratio / Remaining bacteria: MRSA, incubated 24 hours
Experimental: as §1, §2, §3, §4, §5, §6, §7

[4] = test system: Propionibacterium acnes (P. acnes); test: Quantitative test of bacterial suspension, P. acnes; details: for Anti-bacteria ratio / Remaining bacteria: P. acnes, incubated 24 hours
Experimental: as §1, §2, §3, §4, §5, §6, §7

[5] = 1 wt % to 30 wt % solution, incubating for 24 hours
[6] = positive control solution, pH 1.68

In the case of `O=C1O[C@H]([C@@H](O)CO)C(O)=C1O` [L-ascorbic acid], the “remaining S. aureus found” value ([1]; 15 wt % to 30 wt % solution, incubating for 24 hours) was “no remaining”, the Anti-bacteria ratio ([1]; 1% solution, pH 2.70) was 99.72% and the Remaining bacteria ([1]; 1% solution, pH 2.70) was 2.5 × 10^4 CFU/mL. For the same compound, the Anti-bacteria ratio ([1]; 5% solution, pH 2.28) was 99.97%, the Remaining bacteria ([1]; 5% solution, pH 2.28) was 3.0 × 10^3 CFU/mL and the Anti-bacteria ratio ([1]; 10% solution, pH 2.05) was 99.99%. For the same compound, the Remaining bacteria ([1]; 10% solution, pH 2.05) was 2.0 × 10^2 CFU/mL, the Anti-bacteria ratio ([1]; 15% solution, pH 1.93) was 100% and the Remaining bacteria ([1]; 15% solution, pH 1.93) was 0 CFU/mL. The Anti-bacteria ratio ([1]; 20% solution, pH 1.80) was 100%, the Remaining bacteria ([1]; 20% solution, pH 1.80) was 0 CFU/mL and the Anti-bacteria ratio ([1]; 25% solution, pH 1.68) was 100%. The Remaining bacteria ([1]; 25% solution, pH 1.68) was 0 CFU/mL, the Anti-bacteria ratio ([1]; 30% solution, pH 1.59) was 100% and the Remaining bacteria ([1]; 30% solution, pH 1.59) was 0 CFU/mL. For the same compound, the “remaining E. coli found in the Petri dishes” value [2, 5] was “no remaining”, the Anti-bacteria ratio ([2]; 1% solution, pH 2.70) was 100% and the Remaining bacteria ([2]; 1% solution, pH 2.70) was 0 CFU/mL. It also gave an Anti-bacteria ratio ([2]; 5% solution, pH 2.28) of 100%, a Remaining bacteria ([2]; 5% solution, pH 2.28) of 0 CFU/mL and an Anti-bacteria ratio ([2]; 10% solution, pH 2.05) of 100%. It also gave a Remaining bacteria ([2]; 10% solution, pH 2.05) of 0 CFU/mL, an Anti-bacteria ratio ([2]; 15% solution, pH 1.93) of 100% and a Remaining bacteria ([2]; 15% solution, pH 1.93) of 0 CFU/mL. For the same compound, the Anti-bacteria ratio ([2]; 20% solution, pH 1.80) was 100%, the Remaining bacteria ([2]; 20% solution, pH 1.80) was 0 CFU/mL and the Anti-bacteria ratio ([2]; 25% solution, pH 1.68) was 100%. For the same compound, the Remaining bacteria ([2]; 25% solution, pH 1.68) was 0 CFU/mL, the Anti-bacteria ratio ([2]; 30% solution, pH 1.59) was 100% and the Remaining bacteria ([2]; 30% solution, pH 1.59) was 0 CFU/mL. For the same compound, the “remaining MRSA found” value ([3]; 5 wt % to 30 wt % solution, incubating for 24 hours) was “no remaining”, the Anti-bacteria ratio ([3]; 1% solution, pH 2.70) was 99.99% and the Remaining bacteria ([3]; 1% solution, pH 2.70) was 2.0 × 10^3 CFU/mL. The Anti-bacteria ratio ([3]; 5% solution, pH 2.28) was 100%, the Remaining bacteria ([3]; 5% solution, pH 2.28) was 0 CFU/mL and the Anti-bacteria ratio ([3]; 10% solution, pH 2.05) was 100%. For the same compound, the Remaining bacteria ([3]; 10% solution, pH 2.05) was 0 CFU/mL, the Anti-bacteria ratio ([3]; 15% solution, pH 1.93) was 100% and the Remaining bacteria ([3]; 15% solution, pH 1.93) was 0 CFU/mL. For the same compound, the Anti-bacteria ratio ([3]; 20% solution, pH 1.80) was 100%, the Remaining bacteria ([3]; 20% solution, pH 1.80) was 0 CFU/mL and the Anti-bacteria ratio ([3]; 25% solution, pH 1.68) was 100%. The Remaining bacteria ([3]; 25% solution, pH 1.68) was 0 CFU/mL, the Anti-bacteria ratio ([3]; 30% solution, pH 1.59) was 100% and the Remaining bacteria ([3]; 30% solution, pH 1.59) was 0 CFU/mL. For the same compound, the “remaining P. acnes found in the Petri dishes” value [4, 5] was “no remaining”, the Anti-bacteria ratio ([4]; 1% solution, pH 2.70) was 100% and the Remaining bacteria ([4]; 1% solution, pH 2.70) was 0 CFU/mL. It also gave an Anti-bacteria ratio ([4]; 5% solution, pH 2.28) of 100%, a Remaining bacteria ([4]; 5% solution, pH 2.28) of 0 CFU/mL and an Anti-bacteria ratio ([4]; 10% solution, pH 2.05) of 100%. The Remaining bacteria ([4]; 10% solution, pH 2.05) was 0 CFU/mL, the Anti-bacteria ratio ([4]; 15% solution, pH 1.93) was 100% and the Remaining bacteria ([4]; 15% solution, pH 1.93) was 0 CFU/mL. For the same compound, the Anti-bacteria ratio ([4]; 20% solution, pH 1.80) was 100%, the Remaining bacteria ([4]; 20% solution, pH 1.80) was 0 CFU/mL and the Anti-bacteria ratio ([4]; 25% solution, pH 1.68) was 100%. For the same compound, the Remaining bacteria ([4]; 25% solution, pH 1.68) was 0 CFU/mL, the Anti-bacteria ratio ([4]; 30% solution, pH 1.59) was 100% and the Remaining bacteria ([4]; 30% solution, pH 1.59) was 0 CFU/mL.
Work on `Cl` [Hydrochloric acid, reference compound] yielded an Anti-bacteria ratio [1, 6] of 99.99%, a Remaining bacteria [1, 6] of 18 CFU/mL and an Anti-bacteria ratio [2, 6] of 100%. For the same compound, the Remaining bacteria [2, 6] was 0 CFU/mL.
